The text below walks through data of patent US20240132513A1, “BENZAZEPINE DERIVATIVES, COMPOSITIONS, AND METHODS FOR TREATING COGNITIVE IMPAIRMENT” (AGENEBIO, INC., priority 2022, published 2024).

Read-outs that look alike come from different tables or passages of the source. Where only a bound is given, the exact number is not on record here.

The target of this assay is α5β3γ2 GABAA R (Homo sapiens, UniProt P18507+P31644). As to the kind of experiment: Binding activity on GABAA R: inhibition of [3H]Ro15-1788 binding, α5 containing receptor. The protocol:
Tissue culture and Membrane Preparation: The binding was performed on Ltk cells stably expressing GABAA R: […], α2β3γ2, α3β3γ2 and α5β3γ2 (provided by Merck Co., NJ, USA). Cells were seeded in 100 mm culture plates in DMEM/F12 medium containing 10% serum and antibiotics in 5% CO2 and allowed to grow for 1-2 days. GABAAR expression was then induced by dexamethasone as follows: 0.5 μM for 1 day for α5 containing and 2 μM for 3 days for α1, α2 and α3 containing GABAARs. After induction, cells were collected by scraping into Dulbecco's Phosphate buffered saline (DPBS, pH 7.4, Invitrogen, Carlsbad, CA, USA) and centrifuged at 150×g for 10 min. The pellet was washed twice by re-suspension and centrifugation. The cell pellets from at least 5 different preps were combined, suspended in the binding assay buffer (50 mM KH2PO4; 1 mM EDTA; 0.2 M KCl, pH 7.4) and membranes prepared by sonication (3-5 times, 30 sec) using Branson Sonifier 150 (G. Heinmann, Germany). Protein content was determined using BCA assay (Bio-Rad Labs, Reinach, Switzerland) with Bovine Serum Albumin (Sigma Aldrich, St. Louis, MO, USA) as the standard. Aliquots were prepared and stored at −20° C. for further use in binding assays.
Ligand Binding: Saturation binding curves were obtained by incubating membranes with increasing concentrations (0.01-8 nM) of [^3H]Rol5-1788 (Flumazepil, 75-85 Ci/mmol, PerkinElmer, MA, USA), with nonspecific binding measured in the presence of 10 μM diazepam.
All binding assays were performed for 1 h at 4° C. in assay buffer. The total assay volume was 0.5 ml containing 0.2 mg/ml protein for α5 and 0.4 mg/ml for α1, α2, and α3 containing GABAAR membranes. Incubations were terminated by filtration through GF/B filters using a 24-Cell Harvestor (Brandel, Gaithersburg, MD, USA) followed by 3 washes with ice-cold assay buffer. Filters were transferred to scintillation vials, 5 ml scintillation liquid added, vortex-mixed and kept in dark. Next day, radioactivity was obtained using a scintillation counter (Beckman Coulter, Brea, CA, USA). All assays were performed in triplicate.
Data Analyses: Saturation and inhibition curves were obtained using GraphPad Prism software (GraphPad Software, Inc., CA, USA).

The mark [1] stands for this setting: ranges of the column heads, [3H]Ro15-1788, Ltk cell membranes.

Sequence of α5β3γ2 GABAA R (P31644 32-462): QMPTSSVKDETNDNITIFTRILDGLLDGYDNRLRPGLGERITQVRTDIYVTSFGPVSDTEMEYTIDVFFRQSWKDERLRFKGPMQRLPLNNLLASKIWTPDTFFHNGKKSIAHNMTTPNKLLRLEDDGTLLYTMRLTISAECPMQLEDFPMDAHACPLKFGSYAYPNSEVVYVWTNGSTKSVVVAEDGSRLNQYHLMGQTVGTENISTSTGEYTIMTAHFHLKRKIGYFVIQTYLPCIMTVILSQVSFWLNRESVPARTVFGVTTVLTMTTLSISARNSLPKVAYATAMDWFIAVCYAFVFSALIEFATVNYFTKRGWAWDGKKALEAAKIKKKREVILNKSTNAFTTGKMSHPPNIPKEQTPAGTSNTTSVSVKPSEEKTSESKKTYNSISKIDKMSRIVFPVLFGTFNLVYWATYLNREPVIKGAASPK
Sequence of α5β3γ2 GABAA R (P28472 26-473 partner): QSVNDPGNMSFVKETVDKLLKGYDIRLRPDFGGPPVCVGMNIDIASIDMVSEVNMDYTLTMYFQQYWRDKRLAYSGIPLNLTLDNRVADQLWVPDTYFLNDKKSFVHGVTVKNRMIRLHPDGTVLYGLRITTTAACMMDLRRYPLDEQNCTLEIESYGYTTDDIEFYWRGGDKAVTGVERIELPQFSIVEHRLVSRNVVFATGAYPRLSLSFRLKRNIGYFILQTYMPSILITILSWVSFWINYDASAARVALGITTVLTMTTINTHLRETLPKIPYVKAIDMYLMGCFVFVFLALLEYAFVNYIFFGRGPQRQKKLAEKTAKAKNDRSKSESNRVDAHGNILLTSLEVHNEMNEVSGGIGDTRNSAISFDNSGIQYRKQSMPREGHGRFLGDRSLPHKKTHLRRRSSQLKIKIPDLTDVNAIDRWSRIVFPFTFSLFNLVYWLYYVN
Sequence of α5β3γ2 GABAA R (P18507 40-475): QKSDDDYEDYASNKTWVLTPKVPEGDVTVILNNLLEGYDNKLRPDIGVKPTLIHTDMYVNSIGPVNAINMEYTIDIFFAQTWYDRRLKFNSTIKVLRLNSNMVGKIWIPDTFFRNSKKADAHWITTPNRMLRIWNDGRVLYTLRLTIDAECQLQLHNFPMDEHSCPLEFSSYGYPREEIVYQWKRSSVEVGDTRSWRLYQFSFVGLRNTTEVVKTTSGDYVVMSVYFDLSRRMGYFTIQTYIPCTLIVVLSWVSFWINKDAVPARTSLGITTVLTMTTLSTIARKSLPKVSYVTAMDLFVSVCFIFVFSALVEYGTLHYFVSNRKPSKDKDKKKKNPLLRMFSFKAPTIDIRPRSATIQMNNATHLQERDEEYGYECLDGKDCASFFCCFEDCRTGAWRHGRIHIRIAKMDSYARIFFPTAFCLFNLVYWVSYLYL

As for `COc1ccc2c(c1)-c1n[nH]cc1Cc1c(-c3noc(C4(F)CC4)n3)ncn1-2` [Compound 191], the Ki – broadly, a measure of affinity in units of concentration, obtained from inhibition or displacement – is below 100 nM. Still for that read-out and setting: under `CC(C)c1noc(-c2ncn3c2Cc2cnn(Cc4ccccc4)c2-c2cc(Cl)ccc2-3)n1` [Compound 2] stands 100 to 1000 nM; under `COc1ccc2c(c1)-c1nn(Cc3ccccc3F)cc1Cc1c(-c3cnn(-c4ccccc4)c3)ncn1-2` [Compound 75], 100 to 1000 nM; under `CCn1cc2c(n1)-c1cc(Cl)ccc1-n1cnc(-c3noc(CN4CCCC4)n3)c1C2` [Compound 350], below 100 nM. The same measure, in the same setting: under `Cn1cc2c(n1)-c1cc(Cl)ccc1-n1cnc(-c3nc(CN4CCCC4=O)co3)c1C2` [Compound 364] stands below 100 nM.

Regarding `CC(C)C[C@@H]1COC(c2ncn3c2Cc2cnoc2-c2cc(Cl)ccc2-3)=N1` [Compound 68], the inhibition constant (Ki) under setting [1] was above 1000 nM. In turn, `Clc1ccc2c(c1)-c1[nH]ncc1Cc1c(-c3cnn(-c4ccccc4)c3)ncn1-2` [Compound 60] gave an inhibition constant (Ki) of 100 to 1000 nM.

For `Clc1ccc2c(c1)-c1nn(C3CCOC3)cc1Cc1c(-c3cnn(CC4CCOCC4)c3)ncn1-2` (stereo not shown) [Compound 321], the inhibitory constant (Ki) is below 100 nM. The molecule `COc1ccc2c(c1)-c1nn(C)cc1Cc1c(-c3noc(C4(F)CCOC4)n3)ncn1-2` (stereo not shown) [Compound 356] gave an inhibition constant Ki below 100 nM. On the same count and under the same terms, to `COc1ccc2c(c1)-c1[nH]ncc1Cc1c(-c3cnn(-c4ccccc4)c3)ncn1-2` [Compound 70] belongs 100 to 1000 nM. Under setting [1], `Clc1ccc2c(c1)-c1nn(C3CCOC3)cc1Cc1c(-c3cnn(Cc4ccccc4)c3)ncn1-2` (stereo not shown) [Compound 274] gave a Ki below 100 nM. `Cn1cc2c(n1)-c1cc(Cl)ccc1-n1cnc(-c3noc(Cn4cccn4)n3)c1C2` [Compound 372] displayed a Ki below 100 nM.

`CC(=O)N(C)Cc1noc(-c2ncn3c2Cc2cn(C)nc2-c2cc(Cl)ccc2-3)n1` [Compound 386]: the inhibitory constant (Ki) under setting [1] was below 100 nM. As for `Clc1ccc2c(c1)-c1nn(CC3CCCO3)cc1Cc1c(-c3cnn(CC4CCOCC4)c3)ncn1-2` (stereo not shown) [Compound 319], the Ki is below 100 nM. In turn, `Clc1ccc2c(c1)-c1c(cnn1Cc1ccccc1)Cc1c(C3=N[C@@H](c4ccccc4)CO3)ncn1-2` [Compound 6] showed a Ki under setting [1] above 1000 nM. Still for that read-out and setting: under `C[C@@H]1COC(c2ncn3c2Cc2cnn(Cc4ccccc4)c2-c2cc(Cl)ccc2-3)=N1` [Compound 12] stands 100 to 1000 nM. In the case of `COCCc1nc(-c2ncn3c2Cc2cn(C)nc2-c2cc(Cl)ccc2-3)no1` [Compound 387], the Ki was below 100 nM. Consider `COc1ccc2c(c1)-c1nn(C)cc1Cc1c(-c3noc(C(C)(C)O)n3)ncn1-2` [Compound 388], for which the inhibition constant (Ki) is below 100 nM.

As for `Cn1cc2c(n1)-c1cc(Cl)ccc1-n1cnc(-c3nc(CN4CCCC4)co3)c1C2` [Compound 345], the Ki is below 100 nM. For the molecule `COc1ccc2c(c1)-c1nn(CCOC(C)(C)C)cc1Cc1c(-c3noc(C(C)(C)OC)n3)ncn1-2` [Compound 333], the Ki was below 100 nM. Turning to `COc1cccc(Cn2cc(-c3ncn4c3Cc3cn(C5CCOC5)nc3-c3cc(Cl)ccc3-4)cn2)n1` (stereo not shown) [Compound 338], the inhibitory constant (Ki) was below 100 nM. For the molecule `COc1ccc2c(c1)-c1[nH]ncc1Cc1c(-c3ccnn3C)ncn1-2` [Compound 78], the Ki under setting [1] was above 1000 nM. The molecule `COc1ccc(Cn2ncc3c2-c2cc(OC)ccc2-n2cnc(C#Cc4ccnn4C)c2C3)cc1` [Compound 37] had an inhibition constant (Ki) of 100 to 1000 nM. On to `COc1ccc2c(c1)-c1nn(C)cc1Cc1c(-c3noc(C4(C)COC4)n3)ncn1-2` [Compound 317], for which the Ki is below 100 nM. `CC(=O)N(C)Cc1coc(-c2ncn3c2Cc2cn(C)nc2-c2cc(Cl)ccc2-3)n1` [Compound 358] displayed a Ki below 100 nM. With `CC(C)c1noc(-c2ncn3c2Cc2cn(C4CCOC4)nc2-c2cc(Cl)ccc2-3)n1` (stereo not shown) [Compound 199], the inhibition constant (Ki) is below 100 nM. On to `COc1ccc2c(c1)-c1[nH]ncc1Cc1c(C3=N[C@@H](c4ccccc4)CO3)ncn1-2` [Compound 15], for which the Ki was below 100 nM. The same measure, in the same setting: to `Cn1ncc2c1-c1cc(Cl)ccc1-n1cnc(C#CC(C)(C)C)c1C2` [Compound 102] belongs below 100 nM. Molecule `Cc1ccc(-c2noc(C)c2COc2ccc(C(=O)NC3CCOCC3)nn2)cn1` [Compound 238] gave a Ki under setting [1] below 100 nM.

Molecule `COc1ccc2c(c1)-c1nn(C)cc1Cc1c(-c3nc(CN(C(C)C)C(C)C)co3)ncn1-2` [Compound 380] displayed an inhibitory constant (Ki) below 100 nM. With `C#Cc1ncn2c1Cc1cnoc1-c1cc(OC)ccc1-2` [Compound 51], under setting [1], the Ki is above 1000 nM. The molecule `COCCn1cc2c(n1)-c1cc(OC)ccc1-n1cnc(-c3noc(C4CCOCC4)n3)c1C2` [Compound 318] came in with a Ki below 100 nM.

`Cn1cc2c(n1)-c1cc(Cl)ccc1-n1cnc(-c3noc(CCN4CCCC4=O)n3)c1C2` [Compound 383] showed a Ki under setting [1] below 100 nM. With `COc1ccc2c(c1)-c1oncc1Cc1c(C3=N[C@H](c4ccccc4)CO3)ncn1-2` [Compound 49], under setting [1], the inhibition constant (Ki) is above 1000 nM. With `COc1ccc2c(c1)-c1nn(C)cc1Cc1c(-c3noc(C4(OC)CCOC4)n3)ncn1-2` (stereo not shown) [Compound 354], the Ki was below 100 nM. On to `COc1ccc2c(c1)-c1nn(C)cc1Cc1c(-c3noc(C4(OC(C)C)CC4)n3)ncn1-2` [Compound 370], for which the Ki was below 100 nM. `Clc1ccc2c(c1)-c1nn(CC3CCCO3)cc1Cc1c(-c3cnn(Cc4ccccn4)c3)ncn1-2` (stereo not shown) [Compound 320] showed an inhibition constant Ki below 100 nM. Molecule `CCn1cc2c(n1)-c1cc(Cl)ccc1-n1cnc(C3=N[C@@H](C(C)C)CO3)c1C2` [Compound 180] yielded a Ki below 100 nM. The molecule `Cc1noc(-c2ncn3c2Cc2cnn(C)c2-c2cc(Cl)ccc2-3)n1` [Compound 3] showed an inhibition constant (Ki) below 100 nM. `C[C@H]1COC(c2ncn3c2Cc2cnn(Cc4ccccc4)c2-c2cc(Cl)ccc2-3)=N1` [Compound 13] gave a Ki under setting [1] above 1000 nM.

On to `COc1ccc2c(c1)-c1[nH]ncc1Cc1c(-c3noc(C(C)(C)C)n3)ncn1-2` [Compound 89], for which the Ki under setting [1] is below 100 nM.

Take `COc1ccc2c(c1)-c1nn(C)cc1Cc1c(-c3noc(Cn4cccn4)n3)ncn1-2` [Compound 361]: the Ki is below 100 nM. As to `CCOC(=O)c1cnc2n1CC(=O)N(C)c1cc(Cl)ccc1-2` [Compound 28], the inhibition constant Ki is above 1000 nM. Same read-out and setting: under `FC(F)(F)c1noc(-c2ncn3c2Cc2cn(CC4CCCO4)nc2-c2cc(Cl)ccc2-3)n1` (stereo not shown) [Compound 227] stands below 100 nM; under `COc1ccc2c(c1)-c1[nH]ncc1Cc1c(-c3cc(C(F)(F)F)nn3C)ncn1-2` [Compound 79], 100 to 1000 nM; under `COc1ccc2c(c1)-c1nn(Cc3ccccc3F)cc1Cc1c(-c3nc(C(C)C)no3)ncn1-2` [Compound 43], below 100 nM. The molecule `COc1ccc2c(c1)-c1[nH]ncc1Cc1c(-c3cnco3)ncn1-2` [Compound 95] gave an inhibitory constant (Ki) below 100 nM. On to `COc1ccc2c(c1)-c1nn(C)cc1Cc1c(-c3noc(C4(OC)CCCC4)n3)ncn1-2` [Compound 355], for which the Ki was below 100 nM.

Molecule `Cc1noc(-c2cnc3n2CC(=O)N(C)c2cc(Cl)ccc2-3)n1` [Compound 32] displayed a Ki under setting [1] above 1000 nM. On to `COc1ccc2c(c1)-c1nn(Cc3ccccc3F)cc1Cc1c(-c3cnn(Cc4ccccc4)c3)ncn1-2` [Compound 77], for which the Ki is below 100 nM. Still for that read-out and setting: to `Cn1cc2c(n1)-c1cc(Cl)ccc1-n1cnc(-c3noc(Cn4ccnc4)n3)c1C2` [Compound 373] belongs below 100 nM; to `COC(C)(C)c1noc(-c2ncn3c2Cc2cn(CC4CCOC4)nc2-c2cc(Cl)ccc2-3)n1` (stereo not shown) [Compound 367], below 100 nM. In the case of `COc1ccc2c(c1)-c1[nH]ncc1Cc1c(-c3cn(C)cn3)ncn1-2` [Compound 80], the Ki under setting [1] is above 1000 nM. `COc1ccc2c(c1)-c1oncc1Cc1c(-c3nc(CC(C)C)no3)ncn1-2` [Compound 67]: the Ki under setting [1] was above 1000 nM. In the case of `COc1ccc2c(c1)-c1nn(C)cc1Cc1c(-c3nc(C4(C)CCOCC4)no3)ncn1-2` [Compound 352], the Ki is below 100 nM. `CC(C)c1noc(-c2cnc3n2CC(=O)N(C)c2cc(Cl)ccc2-3)n1` [Compound 31] came in with a Ki above 1000 nM. For the molecule `COc1ccc2c(c1)-c1[nH]ncc1Cc1c(-c3noc(C(C)C)n3)ncn1-2` [Compound 54], the inhibitory constant (Ki) was below 100 nM. In the case of `COc1ccc2c(c1)-c1[nH]ncc1Cc1c(-c3cnn(C)c3)ncn1-2` [Compound 82], the Ki lay in the range of 100 to 1000 nM.

`COc1cccc(Cn2cc(-c3ncn4c3Cc3cn(CC5CCCO5)nc3-c3cc(Cl)ccc3-4)cn2)n1` (stereo not shown) [Compound 337] yielded a Ki below 100 nM. `COc1ccc2c(c1)-c1nn(CC3CCCO3)cc1Cc1c(-c3noc(C4(OC)CC4)n3)ncn1-2` (stereo not shown) [Compound 323] showed a Ki below 100 nM. Same read-out and setting: to `COc1ccc2c(c1)-c1nn(C)cc1Cc1c(-c3noc(CC4COC4)n3)ncn1-2` [Compound 366] belongs below 100 nM.
